Test results reported in patent publication US20200197439A1, “IMM[…] POLYOMAVIRUSES” (Atara Biotherapeutics, Inc., priority 2016, published 2020).

Legend:
[1] = tested on: CD4+ T cells; assay: HLA restriction of mapped CD4+ BKV epitopes (ICS with peptide loaded HLA-matched and mismatched LCLs); type: cell-based, human; settings: CD4+ epitopes mapped in this study; T cells stimulated with peptide loaded HLA-matched and mismatched LCLs
Source text: (§1) In order to characterize the T cell responses directed towards these antigens and precisely map the HLA class I and class II-restricted T cell responses, individual overlapping peptides (15 aa long overlapping by 10 aa) were sourced for LTA, STA and VP1 proteins for T cell epitope mapping. A two-dimensional peptide matrix was used to distribute all individual peptides into small overlapping peptide pools. The matrix is set up in the way that each peptide occurs once on the ordinate (FIG. 3). These peptide pools were used in ICS assays. After the ICS analysis, T cell response to the peptide pools was compared with the matrix to identify individual peptides. These individual peptides were further assessed for T cell expansion and ICS analysis to identify potential BK. Once the 15 mer peptide was identified, further mimimalization of the epitope sequence was carried out to identify the optimal T cell epitope sequence. The 15 mer peptide sequences were trimmed from both N- and C-terminus to a minimal of 9 aa long peptides. Once the minimal peptide sequence was identified, further confirmation was carried out using limiting dose titration ICS assay. After mapping minimal epitope sequence, the HLA restriction of the epitope was identified by stimulating T cells using peptide loaded HLA-matched and mismatched LCLs.
In order to map the T cell epitope further analysis was carried out using sub pools of STA peptides (12 pools) designed based on the two dimensional matrix shown in FIG. 3. […] Similar epitope mapping process was carried out for other CD4^+ and CD8^+ T cell epitopes.

[2] = tested on: CD8+ T cells; assay: HLA restriction of mapped CD8+ BKV epitopes (ICS with peptide loaded HLA-matched and mismatched LCLs); type: cell-based, human; settings: CD8+ epitopes mapped in this study; T cells stimulated with peptide loaded HLA-matched and mismatched LCLs
Source text: as §1, with “LCLs. […]” for “LCLs.”

Sequence	HLA Restriction [1]	HLA Restriction [2]
CFTQWFGLDLTEETL [JCV variant […]]	DRB1*03/04	
FNVPKRRYWLFKGPI [JCV variant […]]	DRB1*15	
GGDEDKMKRMNTLYK [JCV variant […]]	DRB1*13	
GTQQWRGLARYFKIR [JCV variant […]]	DRB1*11/8	
KMKRMNTLYKKMEQD [JCV variant […]]	DRB1*13	
RGLARYFKIRLRKRS [JCV variant […]]	DRB1*11	
RKAYLRKCKEFHPDK [JCV variant […]]	DRB1*13	
RRYWLFKGPIDSGKT [JCV variant […]]	DRB1*15	
VKNPYPISFLL (BK polyomavirus)		Cw*07
WDEDLFCHEDMFASD [JCV variant […]]	DQB5*01	
